This test relates to OPA1. As to the kind of experiment: OPA1 level in fibroblasts, Western blotting. The test is classed as cell-based, human. Particulars: FIG. 2D. Here is the method:
FIG. 2A-FIG. 2F. Miro1 Reducer Eliminates the Miro1 Defect in PD Fibroblasts. (FIG. 2A) Chemical properties of Miro1 Reducer. (FIG. 2B) Wild-type flies (w^1118) were fed with DMSO alone (0 μM Miro1 Reducer) or Miro1 Reducer in DMSO at 250 μM for 7 days, and lysed and blotted as indicated. The band intensities are normalized to those of Tubulin from the same blots. n=4. (FIG. 2C-FIG. 2E) Fibroblasts were treated, lysed, and blotted as indicated. (FIG. 2C) Band intensities are normalized to those of GAPDH from the same blots and compared to “Healthy-1, no treatment” except otherwise indicated. n=4. (FIG. 2D) Band intensities are normalized to those of ATP5β from the same blots and expressed as a percentage of the mean of “0 μM Miro1 Reducer with CCCP”. Mean±S.E.M is shown. n=3. (FIG. 2E) Band intensities are normalized to those of GAPDH from the same blots and compared to “Healthy-1, no CCCP, no MG132” except otherwise indicated. n=4. (FIG. 2F) Healthy-1 and PD-2 fibroblasts were transfected as indicated, and immunostained with anti-Myc (Miro1, green) and stained with Dapi (blue). The Miro1 intensity is normalized to that of mito-dsRed from the same cell and quantified across 37-62 cells from 5 fields each transfection, 3 independent transfections. Scale bars: 50 μm. For (FIG. 2C-FIG. 2F), both CCCP and Miro1 Reducer were dissolved in DMSO. […]

Structures are written as SMILES.

`O=C(Nc1ccc(Nc2cc(-n3ccnc3)ncn2)cc1)Nc1cccc(F)c1` [Miro1 Reducer]: the “IMM dynamin GTPase OPA1 level” value was “not reduced”.

The record behind these values is patent US12544375B2, “Small molecule therapeutic for parkinson's disease paired with a biomarker of therapeutic activity” (The Board of Trustees of the Leland Stanford Junior …, priority 2019, dated 2026).
